Data reported in PMC4182326, “Synthesis and Characterization of Novel 2-Amino-Chromene-Nitriles that Target Bcl-2 in Acute Myeloid Leukemia Cell Lines” (PLoS ONE, 2014).

Legend:
Bcl-2 [1] = molecular target: T1, Bcl-2 (Homo sapiens, UniProt P10415); experiment: Zymed Bcl-2 ELISA; % inhibition of Bcl-2 binding to its antibody at […]
T1 construct: gene BCL2

Bcl-2 [2] = molecular target: T1, Bcl-2; experiment: Zymed Bcl-2 ELISA; inhibition of Bcl-2 binding to its antibody

T1 sequence (P10415 whole entry): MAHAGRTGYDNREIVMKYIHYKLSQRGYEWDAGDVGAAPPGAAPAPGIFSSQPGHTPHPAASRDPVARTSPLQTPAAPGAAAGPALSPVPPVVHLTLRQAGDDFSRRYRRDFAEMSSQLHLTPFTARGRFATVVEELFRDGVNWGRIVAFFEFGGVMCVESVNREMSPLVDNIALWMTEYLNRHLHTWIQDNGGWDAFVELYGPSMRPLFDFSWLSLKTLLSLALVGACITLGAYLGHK

Row | inhibition at 30 µM (Bcl-2 [1]) [%] | IC50 (Bcl-2 [2]) [µM] | SMILES
1 | 37.8 | – | N#CC1=C(N)Oc2cc3ccccc3cc2C1c1cccc([N+](=O)[O-])c1 (stereo not shown) [4a, 2-amino-4-(3-nitrophenyl)-4H-benzo[g]chromene-3-carbonitrile]
2 | 61.9 | – | N#CC1=C(N)Oc2cc3ccccc3cc2C1c1ccccc1[N+](=O)[O-] (stereo not shown) [4f, 2-amino-4-(2-nitrophenyl)-4H-benzo[g]chromene-3-carbonitrile]
3 | – | 17.8 | N#CC1=C(N)Oc2cc3ccccc3cc2C1c1c(Cl)cccc1Cl (stereo not shown) [4g, 2-amino-4-(2,6-dichlorophenyl)-4H-benzo[g]chromene-3-carbonitrile]
4 | 53 | – | N#CC1=C(N)Oc2cc3ccccc3cc2C1c1ccc(F)cc1 (stereo not shown) [4h, 2-amino-4-(4-fluorophenyl)-4H-benzo[g]chromene-3-carbonitrile]
